Tests used:
Cavia porcellus [1] = test: Ability to prevent PAF-induced bronchoconstriction in guinea pig when administered at a dose of 1 mg/kg intravenously; type: functional; conditions: route intravenous
[2] = biological target: Platelet-activating factor receptor (Cavia porcellus) (UniProt P21556); test: Ability to prevent PAF-induced bronchoconstriction in guinea pig when administered intravenously; type: functional
[3] = biological target: Platelet-activating factor receptor (Cavia porcellus) (UniProt P21556); test: Ability to prevent PAF-induced bronchoconstriction in guinea pig 2 hr after administration (50 mg/kg perorally); type: functional, organism-based
Cavia porcellus [4] = test: Inhibition of PAF-induced bronchoconstriction in guinea pig 2 hr after p.o. administration.; type: functional; conditions: po, read-out: ID50 (the source's name)
Cavia porcellus [5] = test: Ability to prevent PAF-induced bronchoconstriction in guinea pig 6 hr following 50 mg/kg p.o. administration.; type: functional; conditions: route oral
Cavia porcellus [6] = test: Ability to prevent PAF-induced bronchoconstriction in guinea pig when administered dose 0.5 mg/kg intravenously; type: functional; conditions: route intravenous
Cavia porcellus [7] = test: Inhibitory activity against bronchoconstriction in guinea pig 2 hr after peroral administration of compound; type: functional; conditions: Lung, po, read-out: ID50 (the source's name)
[8] = test system: Platelet-activating factor receptor (Canis familiaris); test: Compound was evaluated for inhibition of platelet activating factor binding activity in dog platelets using [3H]PAF as radioligand; NA means inactive

Platelet-activating factor receptor (Cavia porcellus), sequence (P21556 whole entry): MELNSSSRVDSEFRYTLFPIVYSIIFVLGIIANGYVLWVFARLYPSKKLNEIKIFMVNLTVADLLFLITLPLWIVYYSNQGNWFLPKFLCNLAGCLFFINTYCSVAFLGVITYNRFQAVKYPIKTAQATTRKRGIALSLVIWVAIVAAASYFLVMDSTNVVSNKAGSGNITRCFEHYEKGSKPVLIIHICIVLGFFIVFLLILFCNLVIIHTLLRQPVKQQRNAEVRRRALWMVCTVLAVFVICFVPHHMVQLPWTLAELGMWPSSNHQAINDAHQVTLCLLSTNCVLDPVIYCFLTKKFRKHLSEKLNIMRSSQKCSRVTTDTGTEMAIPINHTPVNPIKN

Row | Structure (SMILES) | inhibition in vivo at 1 mg/kg (Cavia porcellus [1]) | ID50 [2] | inhibition [3] | ED50 (Cavia porcellus [4]) | inhibition in vivo at 50 mg/kg (Cavia porcellus [5]) | inhibition in vivo at 0.5 mg/kg (Cavia porcellus [6]) | ED50 (Cavia porcellus [7]) | IC50 [8]
1 | COc1ccc(C(=C/C=C/C(=O)NCCOCc2cccnc2)c2ccc(OC)cc2)cc1 | 48% | – | – | – | – | – | – | –
2 | COc1ccc(C(=C/C=C/C(=O)NCCCOc2cccnc2)c2ccc(OC)cc2)cc1 | 43% | – | – | – | – | – | – | –
3 | CCCCCC(=C/C=C/C(=O)N[C@H](C)CCCc1cccnc1)CCCCC | 78% | 0.64 mg/kg | 4% | – | – | – | – | –
4 | C[C@H](CCCc1cccnc1)NC(=O)/C=C/C=C(c1cccc(F)c1)c1cccc(F)c1 | 73% | 0.22 mg/kg | 91% | 37 mg/kg | 87% | – | – | –
5 | O=C(/C=C/C=C(c1cccc(Cl)c1)c1cccc(Cl)c1)NCCCCc1cccnc1 | 76% | 0.47 mg/kg | 23% | – | – | – | – | –
6 | O=C(CCCCC=C(c1ccccc1)c1ccccc1)NCCCCc1cccnc1 | – | – | – | – | – | 15% | – | –
7 | O=C(/C=C/C=C(c1cccc(F)c1)c1cccc(F)c1)NCCCCc1cccnc1 | 71% | 0.34 mg/kg | 37% | – | – | – | 50 mg/kg | –
8 | COc1ccc(C(=C/C=C/C(=O)NC(C)CCCc2cccnc2C)c2ccc(OC)cc2)cc1 (configuration not stated) | 47% | 1.1 mg/kg | – | – | – | – | – | –
9 | COc1ccc(/C(C)=C/C=C/C(=O)N[C@H](C)CCCc2cccnc2)cc1 | 42% | – | – | – | – | – | – | –
10 | COc1cccc(C(=C/C=C/C(=O)N[C@H](C)CCCc2cccnc2)c2cccc(OC)c2)c1 | 88% | 0.21 mg/kg | 86% | 29 mg/kg | 12% | – | – | –
11 | O=C(/C=C/C=C(c1ccc(Cl)cc1)c1ccc(Cl)cc1)NCCCCc1cccnc1 | 95% | 0.18 mg/kg | 54% | 50 mg/kg | – | – | – | –
12 | COc1ccc(C(=C/C=C/C(=O)N[C@@H](CCCc2cccnc2)C2CC2)c2ccc(OC)cc2)cc1 | 98% | 0.2 mg/kg | 99% | 6 mg/kg | 82% | – | – | –
13 | COc1ccc(C(=C/C=C/C(=O)N[C@@H](C)CCCc2cccnc2)c2ccc(OC)cc2)cc1 | 59% | 0.84 mg/kg | 90% | 29 mg/kg | 56% | – | – | –
14 | C[C@@H](CCCc1cccnc1)NC(=O)/C=C/C=C(c1ccc(F)cc1)c1ccc(F)cc1 | 21% | – | – | – | – | – | – | –
15 | COc1ccc(C(=C/C=C/C(=O)Nc2ccc(Cc3cccnc3)cc2)c2ccc(OC)cc2)cc1 | 3% | – | – | – | – | – | – | –
16 | COc1cccc(/C(=C/C=C/C(=O)NCCCCc2cccnc2)c2cccc(F)c2)c1 | 90% | 0.25 mg/kg | 1% | – | – | – | – | –
17 | COc1ccccc1C(=C/C=C/C(=O)NCCCCc1cccnc1)c1ccccc1OC | 40% | – | – | – | – | – | – | –
18 | COc1ccc(/C=C/C=C/C(=O)N[C@H](C)CCCc2cccnc2)cc1 | -17% | – | – | – | – | – | – | –
19 | COc1ccc(C(=C/C=C/C(=O)Nc2ccc(-c3cccnc3)cc2)c2ccc(OC)cc2)cc1 | 97% | 0.15 mg/kg | 82% | 29 mg/kg | 77% | – | – | –
20 | CCCCC/C(=C/C=C/C(=O)N[C@H](C)CCCc1cccnc1)c1ccc(OC)cc1 | 57% | 0.78 mg/kg | 13% | – | – | – | – | –
21 | COc1cccc(/C(=C\C=C\C(=O)NCCCCc2cccnc2)c2cccc(F)c2)c1 | 88% | 0.46 mg/kg | 25% | – | – | – | – | –
22 | COc1ccc(C(=C/C=C/C(=O)N[C@@H](CCCc2cccnc2)C(C)C)c2ccc(OC)cc2)cc1 | 87% | 0.43 mg/kg | 57% | 26 mg/kg | – | – | – | –
23 | CCC[C@H](CCCc1cccnc1)NC(=O)/C=C/C=C(c1ccc(OC)cc1)c1ccc(OC)cc1 | 24% | – | – | – | – | – | – | –
24 | COc1ccc(/C(=C/C=C/C(=O)N[C@H](C)CCCc2cccnc2)C(C)C)cc1 | 89% | 0.41 mg/kg | 71% | 30 mg/kg | 20% | – | – | –
25 | O=C(CC=C(c1ccccc1)c1ccccc1)NCCCCc1cccnc1 | – | – | – | – | – | – | – | Not Active
26 | CCC/C(=C\C=C\C(=O)N[C@H](C)CCCc1cccnc1)c1ccc(OC)cc1 | 86% | 0.52 mg/kg | 9% | – | – | – | – | –
27 | CCCC[C@H](CCCc1cccnc1)NC(=O)/C=C/C=C(c1ccc(OC)cc1)c1ccc(OC)cc1 | 42% | – | – | – | – | – | – | –
28 | O=C(CCC=C(c1ccccc1)c1ccccc1)NCCCCc1cccnc1 | – | – | – | – | – | 21% | – | –

Row | Structure (SMILES) | inhibition in vivo at 1 mg/kg (Cavia porcellus [1]) | ID50 [2] | inhibition [3] | ED50 (Cavia porcellus [4]) | inhibition in vivo at 50 mg/kg (Cavia porcellus [5]) | inhibition in vivo at 0.5 mg/kg (Cavia porcellus [6]) | ED50 (Cavia porcellus [7]) | IC50 [8]
29 | COc1ccc(C(=C/C=C/C(=O)NCCCCc2cccnc2)c2ccc(OC)c(OC)c2)cc1OC | 78% | 0.54 mg/kg | 71% | 27 mg/kg | 17% | – | – | –
30 | COc1ccc(C(=C/C=C/C(=O)NC(C)CCCc2ccc(C)nc2)c2ccc(OC)cc2)cc1 (configuration not stated) | 5% | – | – | – | – | – | – | –
31 | COc1ccc(/C(=C\C=C\C(=O)N[C@H](C)CCCc2cccnc2)c2ccccc2)cc1 | 74% | 0.5 mg/kg | 0% | – | – | – | – | –
32 | COc1ccc(C(=C/C=C/C(=O)N[C@H](C)CCCc2cccnc2)c2ccc(OC)c(OC)c2)cc1OC | 99% | 0.14 mg/kg | 67% | 26 mg/kg | 2% | – | – | –
33 | CC[C@H](CCCc1cccnc1)NC(=O)/C=C/C=C(c1ccc(OC)cc1)c1ccc(OC)cc1 | 99% | 0.16 mg/kg | 99% | 6 mg/kg | 85% | – | – | –
34 | COc1ccc(/C(=C/C=C/C(=O)N[C@H](C)CCCc2cccnc2)c2ccccc2)cc1 | 89% | 0.16 mg/kg | 95% | – | 53% | – | – | –
35 | CCCC/C(=C\C=C\C(=O)N[C@H](C)CCCc1cccnc1)c1ccc(OC)cc1 | 99% | 0.68 mg/kg | 98% | 12 mg/kg | 69% | – | – | –
36 | COc1ccc(C(=C/C=C/C(=O)NC(C)(C)CCCc2cccnc2)c2ccc(OC)cc2)cc1 | 97% | 0.27 mg/kg | 54% | 55 mg/kg | – | – | – | –
37 | COc1ccc(/C(=C/C=C/C(=O)N[C@H](C)CCCc2cccnc2)C2CCCCC2)cc1 | 73% | 0.21 mg/kg | 97% | 10 mg/kg | 12% | – | – | –
38 | O=C(/C=C/C=C(c1cccc([N+](=O)[O-])c1)c1cccc([N+](=O)[O-])c1)NCCCCc1cccnc1 | 78% | 0.26 mg/kg | – | – | – | – | – | –
39 | O=C(CCCCCC=C(c1ccccc1)c1ccccc1)NCCCCc1cccnc1 | – | – | – | – | – | – | – | Not Active
40 | O=C(CCCC=C(c1ccccc1)c1ccccc1)NCCCCc1cccnc1 | – | – | – | – | – | – | – | Not Active
41 | O=C(/C=C\C=C(c1ccccc1)c1ccccc1)NCCCCc1cccnc1 | – | – | – | – | – | -1% | – | –
42 | COc1ccc(C(=C/C=C/C(=O)NCCCCc2cccnc2)c2ccc(OC)cc2)cc1 | 92% | 0.25 mg/kg | 82% | 12 mg/kg | 71% | – | – | –
43 | CCCCCCCC/C(=C\C=C\C(=O)N[C@H](C)CCCc1cccnc1)c1ccc(OC)cc1 | 98% | 0.1 mg/kg | 84% | 13 mg/kg | 27% | – | – | –
44 | O=C(C=C(c1ccccc1)c1ccccc1)NCCCCc1cccnc1 | – | 0.58 mg/kg | 28% | – | – | 66% | – | –
45 | Cc1ccc(C(=C/C=C/C(=O)NCCCCc2cccnc2)c2ccc(C)cc2)cc1 | 95% | 0.26 mg/kg | 67% | 43 mg/kg | 11% | – | – | –
46 | C[C@H](CCCc1cccnc1)NC(=O)/C=C/C=C(c1ccc(F)cc1)c1ccc(F)cc1 | 70% | 0.31 mg/kg | 53% | – | – | – | – | –
47 | COc1cccc(C(=C/C=C/C(=O)NCCCCc2cccnc2)c2cccc(OC)c2)c1 | 69% | 0.36 mg/kg | 31% | 80 mg/kg | – | – | – | –
48 | COc1ccc(C(=C/C=C/C(=O)N[C@@H](CCCc2cccnc2)C2CCCC2)c2ccc(OC)cc2)cc1 | 19% | – | – | – | – | – | – | –
49 | CC/C(=C\C=C\C(=O)N[C@H](C)CCCc1cccnc1)c1ccc(OC)cc1 | 72% | 0.68 mg/kg | 84% | 35 mg/kg | 9% | – | – | –
50 | C[C@@H](CCCc1cccnc1)NC(=O)/C=C/C=C(c1cccc(F)c1)c1cccc(F)c1 | 34% | – | 46% | – | – | – | – | –
51 | COc1cccc(C(=C/C=C/C(=O)N[C@@H](C)CCCc2cccnc2)c2cccc(OC)c2)c1 | 36% | – | 10% | – | – | – | – | –
52 | Cc1ccc(C(=C/C=C/C(=O)N[C@H](C)CCCc2cccnc2)c2ccc(C)cc2)cc1 | 97% | 0.3 mg/kg | 91% | 18 mg/kg | 14% | – | – | –
53 | O=C(/C=C/C=C(c1ccc(F)cc1)c1ccc(F)cc1)NCCCCc1cccnc1 | 91% | 0.38 mg/kg | 89% | – | – | – | 28 mg/kg | –
54 | COc1ccc(/C(=C\C=C\C(=O)N[C@H](C)CCCc2cccnc2)C2CCCCC2)cc1 | 18% | – | – | – | – | – | – | –
55 | CC[C@@H](CCCc1cccnc1)NC(=O)/C=C/C=C(c1ccc(OC)cc1)c1ccc(OC)cc1 | 44% | – | – | – | – | – | – | –

From ChEMBL document CHEMBL1124557, “Pentadienyl carboxamide derivatives as antagonists of platelet-activating factor” (J Med Chem, 1989)
